Paper PMC5413979 (Nature Communications, 2017)

Biological target: T1, VcINDY (Vibrio cholerae, UniProt Q9KNE0)
T1 construct: gene VC_A0025

SMILES: O=C(O)CCC(=O)O [succinate]
- Km: 220 µM
